Columns and labels:
HCV GT1a replicon cells = test: HCV replicon assay, GT1a replicon cells; assay type: cell-based; conditions: Hepatitis C virus, 72 hours incubation, luciferase reporter or NEO gene qPCR readout, read-out: EC50 against HCV 1a genotype
Method: (§1) An HCV Replicon assay was utilized in the present disclosure, and was prepared, developed and validated as described in Science, 1999, 285 (5424), 110-3 and J. Virol., 2003, 77 (5), 3007-19.
(§2) HCV GT1a, GT1b and GT2a replicon cells were used to test the currently described compound series as well as wild-type cells HCV 1b and resistant cells Y^93H, L31F, P32L and I302V. GT1a and CT1b are HCV Replicon System which is transfected HCV 1a, 1b genotype respectively.
(§3) 1. Testing EC50 of the Compounds by Luciferase Assay
(§4) The GT1b cells and GT1a cells were seeded into 96-well plates (8,000 cells in 125 μl/well) respectively; each compound was diluted to desired concentration using 5-fold serial dilutions protocol, 10 dose in duplicate, and added to wells with POD™ 810 Plate Assembler. The final concentration of DMSO was 0.5%; the plates were incubated in a CO2 incubator for 72 hours; after that, 40 μl of Luciferase assay substrate (Promega Bright-Glo) was added to each well, and detected by a chemiluminescence detection system (Topcount Microplate Scintillation and Luminescence Counter) 5 minutes later; data analysis.
(§5) 2. Testing EC50 of the Compounds by Detecting Antibiotic G418 Resistance Gene NEO Gene
(§6) The GT1b cells and GT1a cells were seeded into 96-well plates (8,000 cells in 125 μl/well) respectively; each compound was diluted to desired concentration using 5-fold serial dilutions protocol, 10 dose in duplicate, and added to wells with POD™ 810 Plate Assembler., the final concentration of DMSO was 0.5%; the cells were incubated in a CO2 incubator for 72 hours; quantitative PCR. • Sample preparation: the supernatant was removed, 100 μl of FCW buffer solution was added to each well, washed carefully and discarded the solution; 50 μl of lysate FCP was added to each well, the cells was lysed as PCR template and diluted with DEPC water. • Quantitative PCR: preparation of reaction mixture according to PCR system; the reaction mixture was dispensed into a 384-well PCR reaction plate (specially for quantitative); and a standard template which was diluted in proportion was distributed into the plate; and the sample template was distributed into the plate; then the 384-well plate was sealed with closure plate membrane; the […] PCR machine was operated by procedures; data analysis.
(§7) 3. Data Processing: The EC50 Values of Compounds were Analyzed by GraphPad Prism Software.

HCV GT1b replicon cells = test: HCV replicon assay, GT1b replicon cells; assay type: cell-based; conditions: Hepatitis C virus, 72 hours incubation, luciferase reporter or NEO gene qPCR readout, read-out: EC50 against HCV 1b genotype
Method: as §1, §2, §3, §4, §5, §6, §7

Structure (SMILES)	EC50 (HCV GT1a replicon cells) [nM]	EC50 (HCV GT1b replicon cells) [nM]
COC(=O)N[C@H](C(=O)N1CCC[C@H]1c1nc2ccc(-c3ccc(-c4ccc5nc([C@@H]6CCCN6C(=O)[C@@H](NC(=O)OC)C(C)C)[nH]c5c4)c4c3C3CCC4N3C)cc2[nH]1)C(C)C [Example 25]	0.083	0.032
COC(=O)N[C@H](C(=O)N1CCC[C@H]1c1ncc(-c2ccc(-c3ccc(-c4cnc([C@@H]5CCCN5C(=O)[C@@H](NC(=O)OC)C(C)C)[nH]4)c4c3C3CCC4CC3)cc2)[nH]1)C(C)C [Example 22]	11.4	0.004
COC(=O)N[C@H](C(=O)N1CCC[C@H]1c1ncc(-c2ccc(-c3ccc(-c4cnc([C@@H]5CCCN5C(=O)[C@@H](NC(=O)OC)C(C)C)[nH]4)c4c3C3CCC4C3)c3c2CCC3)[nH]1)C(C)C (stereo partly shown) [Example 67]	0.953	0.053
COC(=O)N[C@H](C(=O)N1CCC[C@H]1c1ncc(-c2ccc(-c3ccc(-c4ccc5nc([C@@H]6CCCN6C(=O)[C@@H](NC(=O)OC)C(C)C)[nH]c5c4)c4c3C3CCC4N3C)nc2)[nH]1)C(C)C (stereo partly shown) [Example 34]	0.054	0.006
COC(=O)N[C@H](C(=O)N1CCC[C@H]1C(=O)Nc1ccc(-c2ccc(-c3ccc(-c4cnc([C@@H]5CCCN5C(=O)[C@@H](NC(=O)OC)C(C)C)[nH]4)cc3)c3c2C2CCC3C2)cc1)C(C)C (stereo partly shown) [Example 49]	0.855	0.083
COC(=O)N[C@H](C(=O)N1CCC[C@H]1c1ncc(-c2ccc(-c3ccc(-c4cnc([C@@H]5CCCN5C(=O)[C@@H](NC(=O)OC)C(C)C)[nH]4)c4c3C3CCC4C3)s2)[nH]1)C(C)C (stereo partly shown) [Example 40]	0.083	0.012
COC(=O)N[C@H](C(=O)N1CCCC1c1ncc(-c2ccc(-c3ccc(-c4cnc([C@@H]5CC6(CN5C(=O)[C@@H](NC(=O)OC)C(C)C)OCCO6)[nH]4)cc3)c3c2C2CCC3CC2)[nH]1)C(C)C (stereo partly shown) [Example 61]	0.088	0.011
COC(=O)N[C@H](C(=O)N1C2CC2C[C@H]1c1ncc(-c2ccc(-c3ccc(-c4ccc(-c5cnc([C@@H]6NC7CC7N6C(=O)[C@@H](NC(=O)OC)C(C)C)[nH]5)cc4)c4c3C3CCC4C3)cc2)[nH]1)C(C)C (stereo partly shown) [Example 45]	3.07	0.113
COC(=O)N[C@H](C(=O)N1C[C@H](C)C[C@H]1c1ncc(-c2ccc(-c3ccc(-c4cnc([C@@H]5C[C@@H](C)CN5C(=O)[C@@H](NC(=O)OC)C(C)C)[nH]4)c4c3C3CCC4CC3)cc2)[nH]1)C(C)C [Example 59]	0.037	0.008
COC(=O)N[C@H](C(=O)N1CCC[C@H]1c1ncc(-c2ccc(-c3ccc(-c4ccc5nc([C@@H]6CCCN6C(=O)[C@@H](NC(=O)OC)C(C)C)[nH]c5c4)cc3)c3c2C2CCC3C2)[nH]1)C(C)C (stereo partly shown) [Example 47]	0.053	0.013
COC(=O)N[C@H](C(=O)N1CCC[C@H]1c1ncc(-c2ccc(-c3ccc(-c4ccc5nc([C@@H]6CCCN6C(=O)[C@@H](NC(=O)OC)C(C)C)[nH]c5c4)c4c3C3CCC4C3)s2)[nH]1)C(C)C (stereo partly shown) [Example 38]	0.064	0.017
COC(=O)N[C@H](C(=O)N1CCC[C@H]1c1ncc(-c2ccc(-c3nnc(-c4ccc5[nH]c([C@@H]6CCCN6C(=O)[C@@H](NC(=O)OC)C(C)C)nc5c4)c4c3C3CCC4C3)cc2)[nH]1)C(C)C (stereo partly shown) [Example 12]	0.658	0.373
[2H]C([2H])([2H])C([2H])(C([2H])([2H])[2H])[C@]([2H])(NC(=O)OC)C(=O)N1CCC[C@H]1c1ncc(-c2ccc(-c3nnc(-c4ccc5[nH]c([C@@H]6CCCN6C(=O)[C@@]([2H])(NC(=O)OC)C([2H])(C([2H])([2H])[2H])C([2H])([2H])[2H])nc5c4)c4c3C3CCC4CC3)cc2)[nH]1 [Example 78]	0.045	0.007
COC(=O)N[C@H](C(=O)N1CCC[C@H]1c1ncc(-c2ccc(-c3ccc(-c4ccc(-c5cnc([C@@H]6CCCN6C(=O)[C@@H](NC(=O)OC)C(C)C)[nH]5)cc4)c4c3C3CCC4C3)cc2)[nH]1)C(C)C [Example 5]	1.05	0.098

From patent publication US9309231B2, “Bridged ring compounds as hepatitis C virus (HCV) inhibitors and pharmaceutical applications thereof” (SUNSHINE LAKE PHARMA CO., LTD, priority 2012, dated 2016)
